US6517838B1, “Decorin binding protein essential peptides and methods of use” (The Texas A&M University System, priority 2000, dated 2003)
“And” between values parts separate entries of the source, which are not always exact repeats. Equal entries are not always repeated. Where two headings read alike, the source gives them in different places. Ends that are not written are not given here.

T1: decorin from bovine fetal skin (bovine), P21793
T1 chain: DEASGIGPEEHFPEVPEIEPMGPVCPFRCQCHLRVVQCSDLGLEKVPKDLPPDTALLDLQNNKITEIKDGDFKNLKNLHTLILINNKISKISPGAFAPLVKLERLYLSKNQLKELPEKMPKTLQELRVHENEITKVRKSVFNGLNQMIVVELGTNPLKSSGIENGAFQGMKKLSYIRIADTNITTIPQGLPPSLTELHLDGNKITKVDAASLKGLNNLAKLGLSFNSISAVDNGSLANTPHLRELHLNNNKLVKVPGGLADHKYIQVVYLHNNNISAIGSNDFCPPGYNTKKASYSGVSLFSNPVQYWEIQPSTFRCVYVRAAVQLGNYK

B1: K-mod: DbpA with lysine residues chemically modified by DL-glyceraldehyde and sodium cyanoborohydride (protein)
chain: ATKIKLESSAKAIVDEIDAIKKKAASMGVNFDAFKDKKTGSGVSENPFILEAKVRATTVAEKFVIAIEEEATKLKETGSSGEFSAMYDLMFEVSKPLQELGIQEMTKTVSMAAEENPPTTAQGVLEIAKKMREKLQRVHKKNQDTLKKKNTEDSTAKS
modifications: left off: small tags and cut ends
notes: DbpA with lysine residues chemically modified by DL-glyceraldehyde and sodium cyanoborohydride

What was measured:
[1] = test system: B. burgdorferi strain B31; test: Arthritis assessment, histopathology of hind tibiotarsal joints of immunized infected mice; format: in vivo; conditions: for Mean Arthritis Rating: severity score 0-4 by neutrophil infiltrate; for Mean Arthritis Rating / % Incidence (arthritis): day 14 post infection; for % Incidence (arthritis): immunized mice, tibiotarsal joint histology
Protocol: (§1) Mice were immunized with recombinant DbpA (SEQ ID 1), P2 (SEQ ID 3), P4 (SEQ ID 5), P5 (SEQ ID 6), P4/P5 (SEQ ID 5/SEQ ID 6), P9 (SEQ ID 10), or the corresponding lysine modified counterparts (P2 Mod, P4 Mod, P5 Mod or P9 Mod) using the immunization schedule established by Hanson (11). Briefly, mice were immunized with 20 μg of protein or peptide in complete Freund's adjuvant (CFA) (Week 1), boosted at week 4 with the same dose in incomplete Freund's adjuvant (IFA) and infected at week 6.
Mice (15 mice/group) were anesthetized with Metofane (methoxyflurane; Pitman-Moore, Mundelein, Ill.) and 10 mice/ group were infected i.d. at the base of the tail with 10^4 Borrelia in 100 μl of media 6 six weeks after the first immunization. The remaining 5 mice/group were tested for a DTH response to recombinant DbpA. Following infection, mice were bled 7 and 14 days postinfection. Serum was collected for antibody analysis and blood cultured for the detection of live spirochetes by inoculating 5 ml of BSK II medium with 50 μl of blood from each infected mouse and cultured for 2 weeks at 34° C. as described above. Also on day 14 postinfection, mice were sacrificed and one hind tibiotarsal joint, heart, bladder, and a 3 mm skin biopsy from the ear were aseptically removed and inoculated into separate tubes containing 6 ml of BSK II medium with antibiotics (50 μg/ml rifampacin and 100 μg/ml phosphomycin (Sigma), and incubated for 2 weeks at 34° C. as described above. Evidence of arthritis was determined by histopathological examination of formalin-fixed hind tibiotarsal joint samples.
Evidence of arthritis was determined by histopathological examination of formalin-fixed hind tibiotarsal joint samples. Tissues for histological examination were embedded in paraffin and stained with hematoxylin and eosin. All sections were examined without knowledge of the vaccination status of the mouse. Arthritis was scored by one of two methods. A positive/negative assessment was used, as well as assignment of an arthritis severity score. Joints were scored according to the levels of infiltrate (neutrophils) as follows: 0, no arthritis, 1, minimal or rare (≦10% tissue involvement); 2, mild (10-20%); […]; and 4, severe (>50%).
A similar trend was also observed for joints examined for arthritis (Table I). DbpA-(SEQ ID 1), P4-(SEQ ID 5), and P5-(SEQ ID 6) immunized mice had the lowest arthritis ratings (0.2, 1.2, and 0.4, respectively) and lowest arthritis incidence (20, 60, and 20%, respectively).

recombinant DbpA = test: Delayed-type hypersensitivity (DTH) to DbpA, footpad swelling in immunized mice; format: in vivo, B. burgdorferi; conditions: C3H/HeJ mice immunized with 20 μg, challenged with 2 μg recombinant DbpA in footpad, 24 h
Protocol: as §1
Native C3H/HeJ mice immunized with DbpA (SEQ ID 1), P2 (SEQ ID 3), P4 (SEQ ID 5), P5 (SEQ ID 6), P4/P5 (SEQ ID 5/SEQ ID 6), P9 (SEQ ID 10), or the corresponding lysine modified counterparts (P2 Mod, P4 Mod, P5 Mod or P9 Mod) were challenged with 2 μg of recombinant DbpA in PBS (50 μl/footpad) 7 weeks after the initial immunization. All footpads were measured before and 24 h after challenge using a spring-loaded micrometer (Mitutoyo, Tokyo, Japan) as described (23). The mice were anesthetized as described above during footpad measurements and injections. Swelling was determined by subtracting the footpad measurements before challenge from those taken 24 h after challenge.
DTH is an in vivo method of testing T cell-dependent immune responses that are manifested by inflammation at the site of antigenic challenge. Mice immunized with DbpA (SEQ ID 1), P2 (SEQ ID 3), P4 (SEQ ID 5), P5 (SEQ ID 6), P4/P5 (SEQ ID 5/SEQ ID 6) combined, P9 (SEQ ID 10), or the corresponding lysine-modified peptides were challenged in the footpad with 2 μg of recombinant DbpA (SEQ ID 1). Footpad measurements were taken before and after challenge as described above. DbpA (SEQ ID 1)-immunized mice developed a significant footpad swelling of 53.3±3.5 (not shown) compared to mice immunized with adjuvant alone or naive mice receiving only the DbpA (SEQ ID 1) challenge. Peptide-immunized mice, with the exception of P2 (SEQ ID 3), also developed a significant DTH response to DbpA (SEQ ID 1) compared to the lysine-modified controls.

decorin [2] = biological target: T2, decorin (Bos taurus, UniProt P21793); test: Inhibition ELISA: decorin attachment to DbpA-coated wells; format: binding, bovine; conditions: 5 μg inhibitor pre-incubated with biotin-conjugated decorin, FIG. 3
T2 construct: Decorin from bovine fetal skin was purified and stored in 4 M guanidine hydrochloride; from tissue; host or cells: decorin from bovine fetal skin; DbpA made in E. coli JM101
Protocol: Immulon-1 microtiter plate wells were coated with 0.4 μg of DbpA in 50 μl of PBS over night at 4° C. The wells were washed and then blocked as described above. During the blocking step, 0.12 μg/ml of biotin-conjugated decorin was pre-incubated at 37° C. with 5 μg of each DbpA-derived peptide or DbpA. After washing, 100 μl of the biotin conjugated decorin/inhibitor mixture was added to the wells and incubated for 1 h. After washing, the wells were incubated with AP-conjugated streptavidin and developed as described above.
(§2) Decorin from bovine fetal skin was purified and stored in 4 M guanidine hydrochloride at −80° C. and dialyzed extensively against PBS before use. Decorin was labeled with digoxigenin-3-O-methylcarbonyl-ε-aminocaproic acid-N-hydroxy-succinimide ester (digoxigenin) (Boehringer Mannheim, Indianapolis. Ind.) according to the manufacturer's instructions and stored at −20° C. To label decorin with biotin, 7.5 mg of NHS-LC-Biotin (sulfosuccinimidyl-6-(biotinamido) hexanoate) (Pierce, Rockford, Ill.) was dissolved in 100 μl of dimethyl sulfoxide and combined with 0.5 mg of decorin and 0.5 ml of 0.2 M sodium borate (pH 8.0) in a total reaction volume of 1 ml.
Confirmation of the critical binding sites in DbpA for decorin and of the biophysical stability of these peptides was tested in an inhibition ELISA. DbpA, peptides P2-P9, chemically modified peptides P2 Mod-P9 Mod, and an irrelevant peptide from the Staphylococcus aureus collagen-binding adhesin, CNA4 (OSKITVDNTKNTIDVTIQG) (SEQ ID 36) were used as inhibitors of decorin attachment to DbpA-coated wells.

[3] = test system: B. burgdorferi strain B31; test: Joint cultures for spirochetes after infection of immunized mice; format: in vivo; conditions: immunized C3H/HeJ mice, joints 14 days post infection
Protocol: as §1
Low-passage B. burgdorferi strain B31 (passage 5) was used in this study and cultured in BSK II (Barbour-Stoenner-Kelly) medium at 34° C. (22). Bacterial cultures were incubated in CO2-enriched atmosphere in a GasPak chamber (BBL, Baltimore, Md.) containing BBL GasPak Plus envelopes and a GasPak anaerobic indicator (Beckton dickinson, Cockeysville, Md.) until the cells reached log phase. Bacterial counts were determined using dark field microscopy and a Petroff-Hausser chamber.
Mice (15 mice/group) were anesthetized with Metofane (methoxyflurane; Pitman-Moore, Mundelein, Ill.) and 10 mice/ group were infected i.d. at the base of the tail with 10^4 Borrelia in 100 μl of media 6 six weeks after the first immunization. The remaining 5 mice/group were tested for a DTH response to recombinant DbpA. Following infection, mice were bled 7 and 14 days postinfection. […]

[4] = biological target: T1, decorin from bovine fetal skin …; test: inhibition ELISA: biotin-conjugated decorin pre-incubated with 5 ug peptide, added to DbpA-coated wells
[5] = biological target: T1, decorin from bovine fetal skin …; test: as above
decorin [6] = biological target: T2, decorin; test: Western ligand blot with digoxigenin-labeled decorin; format: binding, bovine; conditions: SDS-PAGE reducing, probed with digoxigenin-labeled decorin
Protocol: as §2
Proteins (purified DbpA, DbpA site-directed mutants and OspC) were subjected to SDS-PAGE (reducing conditions) and probed with rabbit anti-DbpA polyclonal sera (R625) or with digoxigenin-labeled decorin.
Further, the side chains of lysine residues were chemically modified and the binding properties of the resulting protein examined. […] Both forms of DbpA migrated as two bands, monomers at 20 and 21 kDa and dimers at 40 and 42 kDa for DbpA and chemically modified DbpA (K-mod), respectively. The decorin binding activity of the DbpA and lysine-modified DbpA was examined in a Western ligand blot assay (FIG. 6B).

decorin [7] = biological target: T2, decorin; test: Binding of biotin-conjugated decorin to protein-coated microtiter wells; parameters: species or system bovine; conditions: 0.4 μg protein coated, 0.12 μg/ml biotin-decorin, compared to wild-type DbpA
Protocol: as §2
Immulon-1 microtiter plate wells (Dynatech Labs, Chantilly, Va.) were coated with 0.4 μg of DbpA (SEQ ID 1), DbpA mutants and K-mod in 50 μl PBS overnight at 4° C. The wells were washed and then blocked with 200 μl of Super Block (Pierce) for 1 h. After washing, 0.12 μg/ml of biotin-conjugated decorin in 100 μl of Super Block was added to the wells and incubated for 1 h. After washing, 100 μl of a 1:10,000 dilution of alkaline phosphatase (AP)-conjugated streptavidin (1 U/ml) (Boehringer Mannheim) was added and incubated for 1 h. […] The absorbance was determined in a Microplate Reader (Molecular Devices, Menlo Park, Calif.). […]

Row | Molecule | Mean Arthritis Rating [1] | DTH response to DbpA (in words) (recombinant DbpA) | inhibition of decorin attachment to DbpA-coated wells (decorin [2]) | % Incidence (arthritis) [1] | other results
1 | P2: overlapping synthetic 25 amino acid peptide of recombinant DbpA, contains a cystine residue (LLISCGLTGATKIKLESSAKAIVD) [Peptide P2] | 1.4 | no response | 44% and 42% |  | 
2 | P4 Mod: lysine modified counterpart of P4 (DAFKDKKTGSGVSENPFILEAKVRA; also: chemically modified lysines) | 2.0 |  |  | 2.0% | 
3 | P4: synthetic 25 amino acid DbpA peptide that maps to the K82 region (DAFKDKKTGSGVSENPFILEAKVRA) [Peptide P4] | 1.2 | response greater than that of control groups but with less intensity | 64% | 60% | 
4 | P5 Mod: lysine modified counterpart of P5 (AKVRATTVAEKFVIAIEEEATKLKE; also: chemically modified lysines) | 3.2 |  |  | 100% | 
5 | P5: synthetic 25 amino acid DbpA peptide that maps to the K82 region (AKVRATTVAEKFVIAIEEEATKLKE) [Peptide P5] | 0.4 | significant responses | 92% | 20% | arthritis incidence and severity (in words) ([1]; immunized infected mice): lowest; positive joint cultures [3]: 60%
6 | P9 Mod: lysine modified counterpart of P9 (REKLQRVHKKNQDTLKKKNTEDSTAKS; also: chemically modified lysines) | 2.0 |  |  | 80% | 
7 | P9: synthetic 25 amino acid DbpA peptide containing K163 and K170 (REKLQRVHKKNQDTLKKKNTEDSTAKS) [Peptide P9] | 1.25 | response greater than that of control groups but with less intensity | 42% and 43% |  | 
8 | REKLQRVHKKNQDTLKKKNTEDSTAKS (modifications not checked) [DbpA-derived synthetic peptide P9] |  |  |  |  | inhibition of decorin attachment to DbpA-coated wells [4]: 43%; inhibition of decorin attachment to DbpA-coated wells [5]: 42%
9 | B1 |  |  |  |  | decorin binding in Western ligand blot (decorin [6]): loss of decorin binding; binding of biotin-conjugated decorin to coated microtiter wells (decorin [7]): essentially unable to support the binding of decorin
10 | AKVRATTVAEKFVIAIEEEATKLKE (modifications not checked) [DbpA-derived synthetic peptide P5] |  |  |  |  | inhibition of decorin attachment to DbpA-coated wells [5]: 92%
11 | DAFKDKKTGSGVSENPFILEAKVRA (modifications not checked) [DbpA-derived synthetic peptide P4] |  |  |  |  | inhibition of decorin attachment to DbpA-coated wells [5]: 64%
